Earlier results, collected in patent US20160184299A1, “COMBINATION COMPOSITION COMPRISING OXYCODONE AND ACETAMINOPHEN FOR RAPID ONSET AND EXTENDED DURATION OF ANALGESIA” (MALLINCKRODT LLC, priority 2011, published 2016).

Test system: hepatic GSH
Settings: mice, cited from earlier work

## CC(=O)Nc1ccc(O)cc1 [acetaminophen]
100 mg/kg to 600 mg/kg
  Time to onset of circulating hepatic GSH changes after administration: ≤ 15 min
All dose groups
  Time of minimum GSH level after injection: 2 h
